These results are taken from PubChem BioAssay AID328 (DTP/NCI, 2004).

Where “and” joins values, the source holds several entries; their conditions need not be identical. Equal entries are not always repeated. Inconclusive results and toxic doses are left out.

The test has as its system BDF1 mice, P388 leukemia ip, median survival T/C. The experiment in a line: NCI In Vivo Anticancer Drug Screen. Data for tumor model P388 Leukemia (intraperitoneal) in B6D2F1 (BDF1) mice. The following applies: endpoint: median survival time, higher = longer survival. Summed up:
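Steps: implant the tumour, treat one group with compound and another with vehicle, record survival, then divide treated by control.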

Setting [1] is: dose: 12.5 mg/kg/injection, schedule: Q04DX003 (ip), vehicle: saline.
Where [2] appears, read: dose: 25.0 mg/kg/injection, schedule: Q04DX003 (ip), vehicle: saline.
The mark [3] stands for this setting: dose: 12.5 mg/kg/injection, schedule: Q01DX009 (ip), vehicle: saline.
[4] abbreviates: dose: 0.78 mg/kg/injection, schedule: Q01DX009 (ip), vehicle: saline.
[5] abbreviates: dose: 6.25 mg/kg/injection, schedule: Q01DX009 (ip), vehicle: saline.
Setting [6] is: dose: 100.0 mg/kg/injection, schedule: Q04DX003 (ip), vehicle: saline with Tween-80.
[7] abbreviates: dose: 100.0 mg/kg/injection, schedule: Q01DX009 (ip), vehicle: saline with Tween-80.
[8] abbreviates: dose: 200.0 mg/kg/injection, schedule: Q01DX009 (ip), vehicle: saline with Tween-80.
Where [9] appears, read: dose: 400.0 mg/kg/injection, schedule: Q01DX009 (ip), vehicle: saline with Tween-80.
[10] abbreviates: dose: 3.13 mg/kg/injection, schedule: Q01DX009 (ip), vehicle: saline.

Turning to `c1ccc(C[n+]2cccc3ccccc32)cc1`, the T/C is, setting by setting: (dose: 6.25 mg/kg/injection, schedule: Q01DX009 (ip), vehicle: Klucel (hydroxypropylcellulose) (HPC)) 109 % of control; (dose: 6.25 mg/kg/injection, schedule: Q04DX003 (ip), vehicle: saline) 100 % of control; (dose: 12.5 mg/kg/injection, schedule: Q01DX009 (ip), vehicle: Klucel (hydroxypropylcellulose) (HPC)) 90 % of control; under setting [1], 100 % of control; (dose: 25.0 mg/kg/injection, schedule: Q01DX009 (ip), vehicle: Klucel (hydroxypropylcellulose) (HPC)) 90 % of control; under setting [2], 104 % of control.

Consider `Cc1ccc(C(=O)C[S+](C)C)c(C)c1`, for which the T/C runs as follows: (dose: 10.46 mg/kg/injection, schedule: Q01DX001 (ip), vehicle: saline) 109 % of control; under setting [3], 100 % of control; (dose: 20.93 mg/kg/injection, schedule: Q01DX001 (ip), vehicle: saline) 100 % of control; (dose: 25.0 mg/kg/injection, schedule: Q01DX009 (ip), vehicle: saline) 105 % of control; (dose: 41.87 mg/kg/injection, schedule: Q01DX001 (ip), vehicle: saline) 100 % of control; (dose: 50.0 mg/kg/injection, schedule: Q01DX009 (ip), vehicle: saline) 100 % of control. For the same compound, the T/C is 108 % of control (dose: 56.25 mg/kg/injection, schedule: Q04DX003 (ip), vehicle: saline); 100 % of control (dose: 75.0 mg/kg/injection, schedule: Q01DX009 (ip), vehicle: saline); 95 % of control (dose: 112.5 mg/kg/injection, schedule: Q04DX003 (ip), vehicle: saline).

For the compound `N[C@H](C(=O)O)[C@@H]1CC(Cl)=NO1`, the T/C (dose: 0.39 mg/kg/injection, schedule: Q01DX009 (ip), vehicle: saline) was 150 % of control; the T/C under setting [4] is 175 % of control; the T/C (dose: 1.0 mg/kg/injection, schedule: Q01DX009 (ip), vehicle: saline) is 183 % of control; the T/C (dose: 1.56 mg/kg/injection, schedule: Q01DX009 (ip), vehicle: saline) was 175 % of control; the T/C (dose: 2.0 mg/kg/injection, schedule: Q01DX009 (ip), vehicle: saline) is 193 % of control; the T/C (dose: 3.12 mg/kg/injection, schedule: Q01DX009 (ip), vehicle: saline) is 95 % of control. Besides, the T/C is 113 % of control (dose: 3.12 mg/kg/injection, schedule: Q04DX003 (ip), vehicle: saline); 220 % of control (dose: 4.0 mg/kg/injection, schedule: Q01DX009 (ip), vehicle: saline); 90 % of control under setting [5]; 250 % of control (dose: 8.0 mg/kg/injection, schedule: Q01DX009 (ip), vehicle: saline); 174 % of control under setting [1]; 118 % of control (dose: 16.0 mg/kg/injection, schedule: Q01DX009 (ip), vehicle: saline). Moreover, the T/C reads like this: (dose: 21.6 mg/kg/injection, schedule: Q04DX003 (ip), vehicle: saline) 169 % of control; under setting [2], 220 % of control; (dose: 32.0 mg/kg/injection, schedule: Q01DX009 (ip), vehicle: saline) 91 % of control; (dose: 50.0 mg/kg/injection, schedule: Q04DX003 (ip), vehicle: saline) 231 % of control; (dose: 50.0 mg/kg/injection, schedule: Q04DX003 (ip), vehicle: water) 117 % of control; (dose: 100.0 mg/kg/injection, schedule: Q04DX003 (ip), vehicle: saline) 101 % of control. The T/C is, setting by setting: (dose: 200.0 mg/kg/injection, schedule: Q04DX003 (ip), vehicle: water) 209 % of control; (dose: 400.0 mg/kg/injection, schedule: Q04DX003 (ip), vehicle: water) 196 % of control.

Turning to `CC(=O)C(=O)C(C)=O`, the T/C (dose: 100.0 mg/kg/injection, schedule: Q01DX001 (ip), vehicle: Klucel (hydroxypropylcellulose) (HPC)) was 105 % of control; the T/C (dose: 200.0 mg/kg/injection, schedule: Q01DX001 (ip), vehicle: Klucel (hydroxypropylcellulose) (HPC)) is 100 % of control; the T/C (dose: 400.0 mg/kg/injection, schedule: Q01DX001 (ip), vehicle: Klucel (hydroxypropylcellulose) (HPC)) was 105 % of control.

Consider `[Na+]`, for which the T/C (dose: 3.0 mg/kg/injection, schedule: Q01DX009 (ip), vehicle: saline) is 104 % of control; the T/C (dose: 6.0 mg/kg/injection, schedule: Q01DX009 (ip), vehicle: saline) was 95 % of control; the T/C (dose: 12.0 mg/kg/injection, schedule: Q01DX009 (ip), vehicle: saline) is 104 % of control; the T/C under setting [1] is 109 % of control; the T/C under setting [2] was 95 % of control.

Consider `Cc1cnc(Cl)nc1Sc1nc(N)nc2nc[nH]c12`, for which the T/C reads like this: (dose: 6.0 mg/kg/injection, schedule: Q01DX009 (ip), vehicle: saline with Tween-80) 184 % of control; (dose: 33.0 mg/kg/injection, schedule: Q04DX003 (ip), vehicle: saline with Tween-80) 118 % of control; (dose: 50.0 mg/kg/injection, schedule: Q04DX003 (ip), vehicle: saline with Tween-80) 122 % of control; (dose: 75.0 mg/kg/injection, schedule: Q04DX003 (ip), vehicle: saline with Tween-80) 109 % of control; under setting [6], 100 % of control.

`CCCCC(=O)OCC1OC(n2cnc3c(=S)nc[nH]c32)C(OC(=O)CCCC)C1OC(=O)CCCC` (centres undefined): the T/C (dose: 12.5 mg/kg/injection, schedule: Q01DX009 (sc), vehicle: olive oil, sesame oil, peanut oil) was 100 % of control; the T/C (dose: 25.0 mg/kg/injection, schedule: Q01DX009 (sc), vehicle: olive oil, sesame oil, peanut oil) is 91 % of control; the T/C (dose: 50.0 mg/kg/injection, schedule: Q01DX009 (sc), vehicle: olive oil, sesame oil, peanut oil) is 100 % of control; the T/C (dose: 100.0 mg/kg/injection, schedule: Q01DX009 (sc), vehicle: olive oil, sesame oil, peanut oil) is 96 % of control; the T/C (dose: 100.0 mg/kg/injection, schedule: Q04DX003 (sc), vehicle: olive oil, sesame oil, peanut oil) is 108 % of control; the T/C (dose: 200.0 mg/kg/injection, schedule: Q04DX003 (sc), vehicle: olive oil, sesame oil, peanut oil) was 108 % of control. For the setting “dose: 400.0 mg/kg/injection, schedule: Q04DX003 (sc), vehicle: olive oil, sesame oil, peanut oil”, the T/C is 116 % of control.

As to `CCOc1ccc(/C=N/Nc2ccc([N+](=O)[O-])cc2)cc1OC`, the T/C is 100 % of control under setting [7], 115 % of control under setting [8] and 115 % of control under setting [9].

On to `Cc1ccc(S(=O)(=O)N(c2ccccc2)c2ccccc2)cc1`, for which the T/C is, setting by setting: (dose: 87.5 mg/kg/injection, schedule: Q01DX009 (ip), vehicle: saline with Tween-80) 96 % of control; (dose: 175.0 mg/kg/injection, schedule: Q01DX009 (ip), vehicle: saline with Tween-80) 96 % of control; (dose: 350.0 mg/kg/injection, schedule: Q01DX009 (ip), vehicle: saline with Tween-80) 101 % of control.

For `CCO/C=C/C(=O)NC(=O)OCC`, the T/C reads like this: under setting [7], 98 % of control; under setting [6], 95 % of control; under setting [8], 107 % of control; (dose: 200.0 mg/kg/injection, schedule: Q04DX003 (ip), vehicle: saline with Tween-80) 95 % of control; under setting [9], 109 % of control; (dose: 400.0 mg/kg/injection, schedule: Q04DX003 (ip), vehicle: saline with Tween-80) 90 % of control.

`COC(=O)C12Oc3ccc(-c4ccc5c(c4O)C(O)=C4C(=O)CC(C)C(O)C4(C(=O)OC)O5)c(O)c3C(O)=C1C(=O)CC(C)C2O` (centres undefined): the T/C is, setting by setting: (dose: 0.39 mg/kg/injection, schedule: Q01DX009 (ip), vehicle: saline with Tween-80) 100 % of control; (dose: 0.78 mg/kg/injection, schedule: Q01DX009 (ip), vehicle: saline with Tween-80) 109 % of control; under setting [4], 100 % of control; (dose: 1.56 mg/kg/injection, schedule: Q01DX009 (ip), vehicle: saline with Tween-80) 104 % of control and 109 % of control; (dose: 3.13 mg/kg/injection, schedule: Q01DX009 (ip), vehicle: saline with Tween-80) 104 % of control and 109 % of control; under setting [10], 93 % of control. The T/C (dose: 6.25 mg/kg/injection, schedule: Q01DX009 (ip), vehicle: saline with Tween-80) is 101 % of control.

On to `CC(=O)c1ccc[n+](Cc2c(Cl)cccc2Cl)c1`, for which the T/C is 93 % of control under setting [10], 92 % of control under setting [5] and 92 % of control under setting [3].

Regarding `CCOC(=O)C(Br)C(Br)C(=O)OCC` (centres undefined), the T/C is, setting by setting: (dose: 50.0 mg/kg/injection, schedule: Q01DX009 (ip), vehicle: saline with Tween-80) 89 % of control; under setting [7], 104 % of control.
